According to US6737383B1, “Herbicidal oxadiazolidines” (priority 1999, dated 2004):

Columns and labels:
morningglory = assay: Test B pre/postemergence morningglory; type: in vivo, Ipomoea hederacea
Procedure, shortened: (§1)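 Test chemicals in a non-phytotoxic solvent mixture with surfactant were sprayed preemergence onto planted seeds and postemergence onto plants 2 to 18 cm tall (1- to 4-leaf stage). After twelve to sixteen days in a greenhouse, injury was visually rated against untreated controls from 0 (no effect) to 10 (complete control).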

rape = assay: Test B pre/postemergence rape; type: in vivo, Brassica napus
Procedure, shortened: as §1

smallflower flatsedge = assay: Test B flood test smallflower flatsedge; type: in vivo, Cyperus difformis; conditions: for S. Flatsedge plant response rating (0 to 10 scale, 0 is no effect, 10 is complete control): under heading Pre-emergence
Procedure, shortened: (§2)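 Flood test on plants grown to the 2-leaf stage; treated plants kept in greenhouse twelve to sixteen days, then visually rated against controls on a 0 (no effect) to 10 (complete control) scale.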

bamyardgrass = assay: Test B flood test barnyardgrass; type: in vivo, Echinochloa crus-galli; conditions: for Barnyardgrass plant response rating (0 to 10 scale, 0 is no effect, 10 is complete control): under heading Pre-emergence
Procedure, shortened: as §2

[1] = Postemergence, Rate 62 g/ha, scale 0 to 10, 0 is no effect, 10 is complete control
[2] = Postemergence, Rate 125 g/ha, scale of 0 to 10 where 0 is no effect and 10 is complete control
[3] = Postemergence, Rate 250 g/ha, scale of 0 to 10, 0 is no effect, 10 is complete control
[4] = Postemergence, Rate 500 g/ha, scale of 0 to 10 where 0 is no effect and 10 is complete control
[5] = Preemergence, Rate 62 g/ha, scale of 0 to 10 where 0 is no effect and 10 is complete control
[6] = Preemergence, Rate 125 g/ha, scale of 0 to 10 where 0 is no effect and 10 is complete control
[7] = Preemergence, Rate 250 g/ha, scale 0 to 10 (0 no effect, 10 complete control)
[8] = Preemergence, Rate 500 g/ha, scale of 0 to 10 where 0 is no effect and 10 is complete control
[9] = Rate 62 g/ha, flood test species, Pre-emergence, visual evaluation after twelve to sixteen days
[10] = Rate 125 g/ha, flood test species, visual evaluation after twelve to sixteen days
[11] = Rate 250 g/ha, Pre-emergence (flood test species), scale 0 to 10, 0 is no effect, 10 is complete control
[12] = Rate 500 g/ha, Pre-emergence section of Table B, 0 to 10 scale (0 no effect, 10 complete control)
[13] = Postemergence, Rate 1000 g/ha, scale 0 to 10 (0 no effect, 10 complete control)
[14] = Rate 1000 g/ha, Preemergence, scale 0 to 10 (0 no effect, 10 complete control)
[15] = Pre-emergence, Rate 1000 g/ha, scale 0 to 10 (0 no effect, 10 complete control)
[16] = Preemergence, Rate 125 g/ha, 0 is no effect, 10 is complete control
[17] = Preemergence, Rate 250 g/ha, scale 0 to 10, 0 is no effect, 10 is complete control
[18] = Preemergence, Rate 500 g/ha, scale 0 to 10 (0 no effect, 10 complete control)
[19] = Rate 62 g/ha, Postemergence, scale of 0 to 10 where 0 is no effect and 10 is complete control
[20] = Rate 125 g/ha, Postemergence, scale 0 to 10
[21] = Rate 500 g/ha, Postemergence, scale 0 to 10
[22] = Rate 62 g/ha, headed Pre-emergence (flood test species), scale 0 to 10 (0 no effect, 10 complete control)
[23] = Rate 125 g/ha, Pre-emergence, flood test species, scale 0 to 10 where 0 is no effect and 10 is complete control
[24] = Rate 250 g/ha, Pre-emergence, flood-test species, scale 0 to 10, 0 is no effect, 10 is complete control
[25] = Postemergence, Rate 250 g/ha, scale 0 to 10, 0 is no effect, 10 is complete control
[26] = Preemergence, Rate 62 g/ha, scale 0 to 10 (0 no effect, 10 complete control)
[27] = Preemergence, Rate 500 g/ha, scale 0 to 10, 0 is no effect, 10 is complete control
[28] = Postemergence section (flood test species), Rate 500 g/ha, scale of 0 to 10 where 0 is no effect and 10 is complete control
[29] = Rate 62 g/ha, Postemergence (flood test species), scale of 0 to 10 where 0 is no effect and 10 is complete control
[30] = flood test species, listed under Postemergence, Rate 250 g/ha, scale 0 to 10, 0 is no effect, 10 is complete control

With `CC(C)N(C(=O)n1oc(=O)n(Cc2nnc(Cl)s2)c1=O)c1ccc(F)cc1` [Compound 646] the “Plant response rating, Morningglory” value (morningglory; [1]) was 0, the “Morningglory plant response rating” value (morningglory; [2]) was 0 and the “Morningglory plant response rating” value (morningglory; [3]) was 0. The “Plant response rating, Morningglory” value (morningglory; [4]) was 4, the “Morningglory plant response rating” value (morningglory; [5]) was 0 and the “Morningglory plant response rating” value (morningglory; [6]) was 0. For the same compound, the “Plant response rating, Morningglory” value (morningglory; [7]) was 0, the “Plant response rating, Morningglory” value (morningglory; [8]) was 0 and the “Plant response rating, Rape” value (rape; [1]) was 0. The “Rape plant response rating” value (rape; [2]) was 0, the “Plant response rating, Rape” value (rape; [4]) was 0 and the “Rape plant response rating” value (rape; [5]) was 0. For the same compound, the “Rape plant response rating” value (rape; [6]) was 0, the “Plant response rating, Rape” value (rape; [7]) was 0 and the “Plant response rating, Rape” value (rape; [8]) was 0. The “Plant response rating, S. Flatsedge (0 to 10 scale, 0 is no effect, 10 is complete control)” value (smallflower flatsedge; [9]) was 0, the “S. Flatsedge plant response rating (0 to 10 scale, 0 is no effect, 10 is complete control)” value (smallflower flatsedge; [10]) was 0 and the “S. Flatsedge plant response rating” value (smallflower flatsedge; [11]) was 0. The “S. Flatsedge plant response rating” value (smallflower flatsedge; [12]) was 0, the “Plant response rating, Barnyardgrass (0 to 10 scale, 0 is no effect, 10 is complete control)” value (bamyardgrass; [9]) was 0 and the “Barnyardgrass plant response rating (0 to 10 scale, 0 is no effect, 10 is complete control)” value (bamyardgrass; [10]) was 0. For the same compound, the “Barnyardgrass plant response rating” value (bamyardgrass; [11]) was 0 and the “Barnyardgrass plant response rating” value (bamyardgrass; [12]) was 0.
With `CCOP(=O)(Cn1c(=O)on(C(=O)N(c2ccc(F)cc2)C(C)C)c1=O)OCC` [Compound 587] the “Plant response rating, Morningglory” value (morningglory; [2]) was 4, the “Morningglory plant response rating” value (morningglory; [3]) was 6 and the “Plant response rating, Morningglory” value (morningglory; [4]) was 7. For the same compound, the “Morningglory plant response rating” value (morningglory; [13]) was 9, the “Morningglory plant response rating” value (morningglory; [6]) was 0 and the “Morningglory plant response rating” value (morningglory; [8]) was 0. For the same compound, the “Plant response rating, Morningglory” value (morningglory; [14]) was 3, the “Plant response rating, Rape” value (rape; [2]) was 0 and the “Rape plant response rating” value (rape; [3]) was 0. The “Plant response rating, Rape” value (rape; [4]) was 0, the “Rape plant response rating” value (rape; [13]) was 0 and the “Rape plant response rating” value (rape; [6]) was 0. For the same compound, the “Rape plant response rating” value (rape; [8]) was 1, the “Plant response rating, Rape” value (rape; [14]) was 2 and the “S. Flatsedge plant response rating” value (smallflower flatsedge; [15]) was 0. The “S. Flatsedge plant response rating (0 to 10 scale, 0 is no effect, 10 is complete control)” value (smallflower flatsedge; [10]) was 0, the “S. Flatsedge plant response rating” value (smallflower flatsedge; [11]) was 0 and the “S. Flatsedge plant response rating” value (smallflower flatsedge; [12]) was 0. For the same compound, the “Barnyardgrass plant response rating” value (bamyardgrass; [15]) was 0, the “Barnyardgrass plant response rating (0 to 10 scale, 0 is no effect, 10 is complete control)” value (bamyardgrass; [10]) was 0 and the “Barnyardgrass plant response rating” value (bamyardgrass; [11]) was 0. The “Barnyardgrass plant response rating” value (bamyardgrass; [12]) was 0.
In the case of `CCN(C(=O)n1oc(=O)n(C(C)C)c1=O)c1nncs1` [Compound 190], the “Morningglory plant response rating” value (morningglory; [5]) is reported as 0, the “Morningglory plant response rating (0 to 10 scale)” value (morningglory; [16]) is reported as 0 and the “Morningglory plant response rating” value (morningglory; [17]) is reported as 0. For the same compound, the “Morningglory plant response rating” value (morningglory; [18]) was 0, the “Morningglory plant response rating” value (morningglory; [19]) was 0 and the “Morningglory plant response rating” value (morningglory; [20]) was 0. The “Plant response rating (0 to 10; 0 is no effect, 10 is complete control), Morningglory” value (morningglory; Rate 250 g/ha, Postemergence) was 0, the “Morningglory plant response rating” value (morningglory; [21]) was 0 and the “Rape plant response rating” value (rape; [5]) was 0. For the same compound, the “Rape plant response rating (0 to 10 scale)” value (rape; [16]) was 0, the “Rape plant response rating” value (rape; [17]) was 0 and the “Rape plant response rating” value (rape; [18]) was 0. The “Rape plant response rating” value (rape; [19]) was 0, the “Rape plant response rating” value (rape; [20]) was 0 and the “Plant response rating (0 to 10; 0 is no effect, 10 is complete control), Rape” value (rape; Rate 250 g/ha, Postemergence) was 0. The “Rape plant response rating” value (rape; [21]) was 0, the “S. Flatsedge plant response rating” value (smallflower flatsedge; [22]) was 0 and the “S. Flatsedge plant response rating” value (smallflower flatsedge; [23]) was 0. For the same compound, the “S. Flatsedge plant response rating” value (smallflower flatsedge; [24]) was 0, the “S. Flatsedge plant response rating” value (smallflower flatsedge; Rate 500 g/ha, Pre-emergence, flood test species, scale 0 to 10 (0 no effect, 10 complete control)) was 0 and the “Barnyardgrass plant response rating” value (bamyardgrass; [22]) was 0. For the same compound, the “Barnyardgrass plant response rating” value (bamyardgrass; [23]) was 0, the “Barnyardgrass plant response rating” value (bamyardgrass; [24]) was 0 and the “Plant response rating, Barnyardgrass” value (bamyardgrass; Rate 500 g/ha, headed Pre-emergence (flood test species), scale 0 to 10 (0 no effect, 10 complete control)) was 0.
In the case of `CC(C)N(C(=O)n1oc(=O)n(CCC(F)(F)F)c1=O)c1ccc(F)cc1` [Compound 397], the “Plant response rating, Morningglory” value (morningglory; [25]) is reported as 5, the “Morningglory plant response rating” value (morningglory; [4]) is reported as 6 and the “Plant response rating, Morningglory” value (morningglory; [26]) is reported as 0. For the same compound, the “Plant response rating, Morningglory” value (morningglory; [6]) was 0, the “Morningglory plant response rating” value (morningglory; [17]) was 0 and the “Morningglory plant response rating” value (morningglory; [27]) was 4. The “Morningglory plant response rating” value (morningglory; [19]) was 0, the “Plant response rating, Rape” value (rape; [25]) was 0 and the “Rape plant response rating” value (rape; [4]) was 2. For the same compound, the “Plant response rating, Rape” value (rape; [26]) was 3, the “Plant response rating, Rape” value (rape; [6]) was 9 and the “Rape plant response rating” value (rape; [17]) was 10. For the same compound, the “Rape plant response rating” value (rape; [27]) was 10, the “Rape plant response rating” value (rape; [19]) was 0 and the “S. Flatsedge plant response rating” value (smallflower flatsedge; [28]) was 0. For the same compound, the “S. Flatsedge plant response rating” value (smallflower flatsedge; [29]) was 0, the “Plant response rating, S. Flatsedge” value (smallflower flatsedge; [30]) was 0 and the “Plant response rating, Barnyardgrass” value (bamyardgrass; Postemergence (flood test), Rate 125 g/ha, scale 0 to 10, 0 is no effect, 10 is complete control) was 0. For the same compound, the “Barnyardgrass plant response rating” value (bamyardgrass; [28]) was 0, the “Barnyardgrass plant response rating” value (bamyardgrass; [29]) was 0 and the “Plant response rating, Barnyardgrass” value (bamyardgrass; [30]) was 0.
